Data as given in patent US20230346745A1, “AGENT FOR PREVENTING OR TREATING TAUOPATHY” (FUJIFILM Toyama Chemical Co., Ltd., priority 2017, published 2023).

Experiments:
Format in all cases: in vivo, human
p-Tau/total-Tau = assay: Phase II placebo-controlled trial: ratio p-Tau/total-Tau in cerebrospinal fluid; details: CSF, AD patients; for p-Tau/total-Tau change at week 52 from baseline, difference from placebo group / p-Tau/total-Tau change at week 52 from baseline, least square means (standard error): First total-Tau measurement (Table 2); for p-Tau/total-Tau (remeasured total-Tau) change at week 52 from baseline, difference from placebo group / p-Tau/total-Tau (remeasured total-Tau) change at week 52 from baseline, least square means (standard error): Total-Tau concentration remeasured (Table 3)
Description: (§1) Test Example 1 Multicenter randomized double-blind phase II placebo-controlled trial for assessing effectiveness and safety of Compound A in mild to moderate AD patients Subject (selection criteria): Patients were screened in a period from 42 days before treatment assignment to the assignment based on the following selection criteria. • Patients who were probable AD and are 55 years old or older and 85 years old or younger at the time of obtaining consent of screening. • Patients with an MMSE score of 12 to 22 at the time of screening • Patients with a Modified Hachinski Ischemia Scale score of 4 or less • Patients who have been treated with a donepezil hydrochloride or rivastigmine transdermal system for at least 4 months before the baseline and with a stable dose thereof for 3 months before the baseline. • In the case of patients who have received memantine in addition to being treated with a donepezil hydrochloride or rivastigmine transdermal system, patients who have been treated with memantine for at least 4 months before the baseline and with a stable dose thereof for 3 months before the baseline. • Patients whose brain MRI or CT results match AD at the time of screening Organization of groups: Patients matched (484 patients) were randomly divided into the following 3 groups and the trial was started. (1) High dose group: 224 mg of a test compound (160 mg in terms of Compound A) was orally administered once a day for 4 weeks and then 448 mg of a test compound (320 mg in terms of Compound A) was orally administered once a day for 48 weeks (158 patients) (2) Low dose group: 224 mg of a test compound (160 mg in terms of Compound A) was orally administered once a day for 52 weeks (166 patients) (3) Placebo group: placebo was orally administered once a day for 52 weeks (158 patients) Method of assessment: Cerebrospinal fluid biomarker
(§2) Cerebrospinal fluid was collected by lumber puncture from subjects at baseline (within 2 weeks before the first day of administration of investigational drug) and after 52 weeks (within 2 weeks before week 52), and divided into 9-ml aliquots in polyethylene tubes and stored at -80° C. The total tau protein concentration (total-Tau) in the cerebrospinal fluid was measured by an ECL method. The phosphorylated tau protein concentration (p-Tau) was measured by ELISA method. The Aβ-42 value in the cerebrospinal fluid was measured by sandwich ELIZA which has been designed for measurement of AP including 1 amino acid and 42 amino acids.
(§3) The total-Tau concentration was measured twice using the same cerebrospinal fluid sample.
(§4) Change in cerebrospinal fluid (CSF) biomarkers at week 52 from the baseline was compared by analysis of covariance between a high dose group and a placebo group, and between a low dose group and the placebo group. For models, the baseline of cerebrospinal fluid (CSF) biomarkers was included as a covariate and the significance level was 5%.

Aβ-38 = assay: Phase II placebo-controlled trial: cerebrospinal fluid biomarker Aβ-38; details: CSF, mild to moderate AD patients
Description: as §1, §2
(§5) Change in cerebrospinal fluid (CSF) biomarkers at week 52 from the baseline was compared by analysis of covariance between a high dose group and a placebo group, and between a low dose group and the placebo group. […]

Aβ-42 = assay: Phase II placebo-controlled trial: cerebrospinal fluid biomarker Aβ-42 (sandwich ELISA); details: CSF, mild to moderate AD patients
Description: as §1, §2, §5

[1] = test system: total tau protein (total-Tau); assay: Phase II placebo-controlled trial: cerebrospinal fluid biomarker total-Tau (ECL method, measured twice); details: CSF, AD patients; for total-Tau change at week 52 from baseline, difference from placebo group / total-Tau change at week 52 from baseline, least square means (standard error): First measurement (Table 2); for total-Tau (remeasured) change at week 52 from baseline, difference from placebo group / total-Tau (remeasured) change at week 52 from baseline, least square means (standard error): Total-Tau concentration remeasured (Table 3)
Description: as §1, §2, §3, §4

Aβ-40 = assay: Phase II placebo-controlled trial: cerebrospinal fluid biomarker Aβ-40; details: CSF, mild to moderate AD patients
Description: as §1, §2, §5

Aβ = assay: Phase II placebo-controlled trial: concentration of Aβ in cerebrospinal fluid (overall statement); details: Compound A group compared to the placebo group; mild to moderate AD patients
Description: as §1, with “(1) High dose group: 224 mg of a test compound (160 mg in terms of Compound A) was orally administered once a day for 4 weeks and then 448 mg of a test compound (320 mg in terms of Compound A) was orally administered once a day for 48 weeks (158 patients) (2) Low dose group: 224 mg of a test compound (160 mg in terms of Compound A) was orally administered once a day for 52 weeks (166 patients) (3) Placebo group: placebo was orally administered once a day for 52 weeks (158 patients) Method of assessment: Cerebrospinal fluid biomarker” left out

[2] = test system: phosphorylated tau protein (p-Tau); assay: Phase II placebo-controlled trial: cerebrospinal fluid biomarker p-Tau (ELISA); details: for p-Tau change at week 52 from baseline, difference from placebo group / p-Tau change at week 52 from baseline, least square means (standard error): CSF
Description: as §1, §2, §4

[3] = High dose group: 160 mg 4 weeks then 320 mg 48 weeks in terms of Compound A, oral once a day
[4] = Low dose group: 160 mg in terms of Compound A, oral once a day 52 weeks
[5] = High dose group: 160 mg 4 weeks then 320 mg 48 weeks in terms of Compound A, oral once a day, mild to moderate AD patients
[6] = Low dose group: 160 mg in terms of Compound A, oral once a day 52 weeks, mild to moderate AD patients

Question: Which “p-Tau/total-Tau change at week 52 from baseline, difference from placebo group” value (p-Tau/total-Tau; [3]) does the source give for `OC1CN(CCCOCCc2ccc3sccc3c2)C1` [Compound A, 1-(3-(2-(1-benzothiophen-5-yl)ethoxy)propyl)azetidin-3-ol] here?
Answer: The value was −11.11%.

Question: And the “p-Tau/total-Tau change at week 52 from baseline, least square means (standard error)” value (p-Tau/total-Tau; [3])?
Answer: The value was −4.47(3.21) %.

Question: What about the “p-Tau/total-Tau change at week 52 from baseline, difference from placebo group” value (p-Tau/total-Tau; [4]) of the same compound?
Answer: The value was −4.60%.

Question: And the “p-Tau/total-Tau change at week 52 from baseline, least square means (standard error)” value (p-Tau/total-Tau; [4])?
Answer: The value was 2.04(4.33) %.

Question: And the “p-Tau/total-Tau (remeasured total-Tau) change at week 52 from baseline, difference from placebo group” value (p-Tau/total-Tau; [3])?
Answer: The value was 0.26%.

Question: And the “p-Tau/total-Tau (remeasured total-Tau) change at week 52 from baseline, least square means (standard error)” value (p-Tau/total-Tau; [3])?
Answer: The value was 0.04(0.17) %.

Question: And the “p-Tau/total-Tau (remeasured total-Tau) change at week 52 from baseline, difference from placebo group” value (p-Tau/total-Tau; [4])?
Answer: The value was 0.03%.

Question: What about the “p-Tau/total-Tau (remeasured total-Tau) change at week 52 from baseline, least square means (standard error)” value (p-Tau/total-Tau; [4]) of the same compound?
Answer: Its value is −0.20(0.20) %.

Question: And the “Aβ-38 change at week 52 from baseline, difference from placebo group” value (Aβ-38; [3])?
Answer: Its value is 525.66 pg/mL.

Question: And the “Aβ-38 change at week 52 from baseline, least square means (standard error)” value (Aβ-38; [3])?
Answer: Its value is 178.64(221.978) pg/mL.

Question: And the “Aβ-38 change at week 52 from baseline, difference from placebo group” value (Aβ-38; [4])?
Answer: Its value is 127.43 pg/mL.

Question: What about the “Aβ-38 change at week 52 from baseline, least square means (standard error)” value (Aβ-38; [4]) of the same compound?
Answer: Its value is −219.58(266.774) pg/mL.

Question: And the “Aβ-42 change at week 52 from baseline, difference from placebo group” value (Aβ-42; [3])?
Answer: Its value is 32.90 pg/mL.

Question: What about the “Aβ-42 change at week 52 from baseline, least square means (standard error)” value (Aβ-42; [3]) of the same compound?
Answer: The value was 11.55(25.578) pg/mL.

Question: What about the “Aβ-42 change at week 52 from baseline, difference from placebo group” value (Aβ-42; [4]) of the same compound?
Answer: Its value is 11.65 pg/mL.

Question: And the “Aβ-42 change at week 52 from baseline, least square means (standard error)” value (Aβ-42; [4])?
Answer: Its value is −9.70(30.362) pg/mL.

Question: And the “total-Tau change at week 52 from baseline, difference from placebo group” value [1, 3]?
Answer: The value was 81.94 pg/mL.

Question: And the “total-Tau change at week 52 from baseline, least square means (standard error)” value [1, 3]?
Answer: The value was 11.38(47.304) pg/mL.

Question: What about the “total-Tau change at week 52 from baseline, difference from placebo group” value [1, 4] of the same compound?
Answer: Its value is 28.19 pg/mL.

Question: What about the “total-Tau change at week 52 from baseline, least square means (standard error)” value [1, 4] of the same compound?
Answer: The value was −42.36(63.947) pg/mL.

Question: What about the “total-Tau (remeasured) change at week 52 from baseline, difference from placebo group” value [1, 3] of the same compound?
Answer: The value was -129.57 pg/mL.

Question: And the “total-Tau (remeasured) change at week 52 from baseline, least square means (standard error)” value [1, 3]?
Answer: Its value is −101.35 (32.552) pg/mL.

Question: What about the “total-Tau (remeasured) change at week 52 from baseline, difference from placebo group” value [1, 4] of the same compound?
Answer: The value was -36.10 pg/mL.

Question: And the “total-Tau (remeasured) change at week 52 from baseline, least square means (standard error)” value [1, 4]?
Answer: The value was −7.88 (38.632) pg/mL.

Question: And the “Aβ-40 change at week 52 from baseline, difference from placebo group” value (Aβ-40; [3])?
Answer: Its value is 1206.87 pg/mL.

Question: And the “Aβ-40 change at week 52 from baseline, least square means (standard error)” value (Aβ-40; [3])?
Answer: Its value is 290.84(466.956) pg/mL.

Question: What about the “Aβ-40 change at week 52 from baseline, difference from placebo group” value (Aβ-40; [4]) of the same compound?
Answer: The value was 75.71 pg/mL.

Question: And the “Aβ-40 change at week 52 from baseline, least square means (standard error)” value (Aβ-40; [4])?
Answer: The value was −840.32(559.467) pg/mL.

Question: And the “change in the concentration of AP in the cerebrospinal fluid at week 52 from the baseline” value (Aβ)?
Answer: Its value is “tended to be increased in a dose dependent manner”.

Question: And the “change in the concentration of p-Tau in the cerebrospinal fluid at week 52 from the baseline” value ([2]; Compound A group compared to the placebo group, mild to moderate AD patients)?
Answer: The value was “consistently tended to be decreased in a dose-dependent manner”.

Question: What about the “change in the concentration of p-Tau in the cerebrospinal fluid at week 52 from the baseline, statistical comparison” value ([2]; Compound A high dose group versus placebo group, analysis of covariance, significance level 5%) of the same compound?
Answer: The value was “statistically significant difference”.

Question: What about the “p-Tau change at week 52 from baseline, difference from placebo group” value [2, 5] of the same compound?
Answer: Its value is -7.59 pg/mL.

Question: What about the “p-Tau change at week 52 from baseline, least square means (standard error)” value [2, 5] of the same compound?
Answer: Its value is −7.30(2.281) pg/mL.

Question: What about the “p-Tau change at week 52 from baseline, difference from placebo group” value [2, 6] of the same compound?
Answer: The value was -4.23 pg/mL.

Question: And the “p-Tau change at week 52 from baseline, least square means (standard error)” value [2, 6]?
Answer: Its value is −3.94(2.715) pg/mL.
